{"source": "patent US7521432B2", "about": "“Compositions and methods for identifying agents which regulate chromosomal stability, gene activation and aging” (priority 2000, dated 2009)", "key": {"[1]": {"system": "Asterina miniata immature oocytes", "assay": "Microinjection into immature starfish oocytes, oocyte maturation (GVBD, polar body extrusion)", "format": "cell-based", "details": "for effect on oocyte maturation as assessed by GVBD and polar body extrusion: microinjected, compared to control injections, text summary", "experimental": "Asterina miniata gametes were collected and microinjections were performed as described previously (Carroll et al., 1999). Briefly, quantitative microinjection of Asterina miniata oocytes was performed at 16° C., using mercury-filled micropipets (Hiramoto, 1962; Kiehart, 1982; and see the information available at http://egg/uchc.edu/injection), allowing injection of precisely calibrated picoliter volumes into the oocytes and blastomeres. Injection volumes were 3% of the total cellular volume (for oocytes, 93 pL and for blastomeres, 47 pL). Buffer alone, purified O-acetylated ADP ribose or recombinant protein was injected into immature oocytes or one blastomere of a two cell stage embryo to a final concentration in the cytoplasm as indicated in the figure legends and Tables. 1-methyl adenine was from Sigma and was used at 10 μM.\nMicro-injection assays were performed in starfish and sea urchin ooctyes. Historically echinoderm development has been a biochemically tractable and well-defined system to assess biological function of pruteins, bio-active compounds and for detailed analyses of the cell cycle. This system is attractive for its amenability to quantitative microinjection assays, cell cycle analyses, biochemical fractionation and microscopic imaging of eggs and early embryos. Initially, we hypothesized that if O-acetyl-ADP ribose produced by SIR2 was involved in SIR2's gene silencing ability, then micro-injection of O-acetyl-ADP ribose into a maturing oocyte should give rise to a phenotypic effect on the developing animal, perhaps through perturbations in normal gene expression patterns. Immature oocytes were micro-injected with HPLC-purified O-acetyl-ADP ribose or with a buffer control. The oocytes were allowed to mature by the addition of 1-methyladenine and assessed for developmental alterations.\nAsterina miniata immature oocytes were microinjected with the amounts of O-acetyl ADP ribose in PBS. The maturation hormone 1-methyladenine was added (10 μM) 25-30 minutes post-injection. Oocytes were monitored for GVBD and polar body extrusion. […] The number of oocytes per treatment is given. Combined results of 3 separate experiments (3 batches of O-acetyl ADP ribose).\nAsterina miniata immature oocytes were microinjected with the given enzymes in PBS. The maturation hormone 1-methyladenine was added (10 μM) 25-30 minutes post-injection. Oocytes were monitored for GVBD and polar body extrusion. […] The number of oocytes per treatment (n) is given. Data are from four separate batches of oocytes. All oocytes for a given treatment responded in the same way unless indicated otherwise (e.g. see 200 nM HST2 injection)."}, "HST2": {"molecular_target": "HST2 (Saccharomyces cerevisiae, UniProt P53686)", "sequence (P53686 whole entry)": "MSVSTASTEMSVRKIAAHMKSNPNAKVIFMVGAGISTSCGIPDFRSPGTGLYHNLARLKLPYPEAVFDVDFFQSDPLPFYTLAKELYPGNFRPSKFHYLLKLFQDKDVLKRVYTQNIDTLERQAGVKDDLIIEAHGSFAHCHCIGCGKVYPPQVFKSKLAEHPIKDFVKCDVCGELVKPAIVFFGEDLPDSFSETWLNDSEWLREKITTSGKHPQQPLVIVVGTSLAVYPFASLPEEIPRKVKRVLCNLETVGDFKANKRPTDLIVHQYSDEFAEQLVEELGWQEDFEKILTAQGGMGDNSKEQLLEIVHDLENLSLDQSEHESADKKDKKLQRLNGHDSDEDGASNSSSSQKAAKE", "assay": "Rapid-reaction single turnover quench-flow analysis", "format": "biochemical, yeast", "details": "HST2, excess NAD^+, sub-stoichiometric [^3H]-AcLys14 H3, 22±3° C., pH 7.5, single exponential fit", "description": "FIGS. 5A-5C are a series of graphs showing that acetate is not a primary product of HST2-catalyzed histone/protein deacetylation. H3 peptide was stoichiometrically acetylated on Lys-14 by the histone acetyltransferase P/CAF and using [^3H]-AcCoA. Monoacetylated [^3H]-AcLys-14 H3 peptide was then purified by HPLC (FIG. 5A) and utilized as a substrate in the HST2 deacetylation reactions (FIG. 5B). Upon complete consumption of [^3H]-AcLys-14 H3 by HST2, all of the original [^3H] from H3 peptide was converted to a labeled product that eluted much later than authentic acetate. Conditions: 375 nM HST2, 175 μM NAD^+, 5 μM [^3H]-Lys14 AcH3, 1 mM DTT, for 1 min at 37° C. prior to quenching with TFA to a final concentration of 1%. FIG. 5C: Single turnover rapid quench-flow analysis. […] Quantification of [^3H]-AcLys14 H3 peptide (diamonds) and the [^3H]-acetate-adduct (circles) was accomplished by liquid scintillation counting of these species separated using reverse phase HPLC. […]\nP/CAF [^3H]-monoacetylation of H3 peptide. […] Every mass spectrum was recorded as the sum of 20 consecutive spectra, each produced by a single pulse of photons. […] The amount of [^3H]-AcLys14 H3 peptide and [^3H]-O-acetyl ADP ribose was determined by liquid scintillation counting of these species separated on reverse phase HPLC. […]"}, "[2]": {"details": "0.2 mg/ml (0.32 mM) in cytoplasm"}, "[3]": {"details": "0.5 mg/ml (0.8 mM) in cytoplasm"}, "[4]": {"details": "1.0 mg/ml (1.6 mM) in cytoplasm"}}, "data": [{"substance": "O-acetyl-ADP ribose", "values": [{"measurement": "no effect (oocytes)", "setting": "[1]; 0.01 mg/ml (0.016 mM) in cytoplasm", "result": "8/8"}, {"measurement": "no effect (oocytes)", "setting": "[1]; 0.1 mg/ml (0.16 mM) in cytoplasm", "result": "16/16"}, {"measurement": "compete block (oocytes)", "setting": "[1]; [2]", "result": "1/8"}, {"measurement": "no effect (oocytes)", "setting": "[1]; [2]", "result": "7/8"}, {"measurement": "1-2 hr delay (oocytes)", "setting": "[1]; [3]", "result": "10/16"}, {"measurement": "compete block (oocytes)", "setting": "[1]; [3]", "result": "6/16"}, {"measurement": "1-2 hr delay (oocytes)", "setting": "[1]; [4]", "result": "1/23"}, {"measurement": "compete block (oocytes)", "setting": "[1]; [4]", "result": "22/23"}, {"measurement": "compete block (oocytes)", "setting": "[1]; 1.7 mg/ml (3 mM) in cytoplasm", "result": "6/6"}, {"measurement": "immediate death (oocytes)", "setting": "[1]; 3.0 mg/ml (5 mM) in cytoplasm", "result": "1/3"}, {"measurement": "no effect (oocytes)", "setting": "[1]; 3.0 mg/ml (5 mM) in cytoplasm, 1-methyladenine 10 μM", "result": "2/3"}, {"measurement": "immediate death (oocytes)", "setting": "[1]; 10 mg/ml (16 mM) in cytoplasm", "result": "2/2"}, {"measurement": "effect on apoptosis of unfertilized oocyte", "setting": "[1]; apoptosis normally occurs after ~24 hrs if not fertilized", "result": "delayed apoptosis"}, {"measurement": "GV breakdown, polar body extrusion and apoptosis of injected oocytes", "setting": "[1]; final 1 mg/mL, images 3 and 24 hr post hormone treatment, FIG. 9", "result": "did not undergo GV breakdown or polar body extrusion, nor did they undergo apoptosis"}, {"measurement": "effect on oocyte maturation as assessed by GVBD and polar body extrusion", "setting": "[1]", "result": "a delay in germinal vesicle breakdown (GVBD), or a complete block in oocyte maturation"}, {"measurement": "effect on oocyte maturation as assessed by GVBD and polar body extrusion", "setting": "[1]; listed as O-acetyl ADP ribose", "result": "block oocyte maturation"}, {"measurement": "concentration below which no effect was observed (dose-dependency)", "setting": "[1]; oocyte maturation", "result": "below 0.32 mM"}, {"measurement": "rate constant of acetate-adduct formation", "setting": "HST2", "result": "2.3 ± 0.2", "unit": "s⁻¹"}]}]}
